Assay results: patent publication US6689773B2, “Uracil substituted phenyl sulfamoyl carboxamides” (BASF Aktiengesellschaft, priority 2000, dated 2004)

What was measured:
Type in all cases: in vivo
[1] = test system: ABUTH, Velvetleaf, Abutilon theophrasti, Medic.; test: Postemergence herbicidal evaluation (Example 147); settings: rating scale 0-9, two to three weeks after treatment
How it was run: (§1)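 ~2-wk seedlings; spray 40 psi; 0.016–0.032 kg/ha a.i. in acetone/water 80/20 + 1.0% methylated seed oil; greenhouse; rated 0–9 visually at 2–3 wk; multiple tests averaged.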

[2] = test system: ALOMY, Blackgrass, Alopecurus myosuroides; test: Postemergence herbicidal evaluation (Example 147); settings: rating scale 0-9, two to three weeks after treatment
How it was run: as §1

[3] = test system: AMBEL, Ragweed, Common, Ambrosia artemiisifolia, L.; test: Postemergence herbicidal evaluation (Example 147); settings: rating scale 0-9, two to three weeks after treatment
How it was run: as §1

[4] = test system: CHEAL, Lambsquarters, Chenopodium album, L. Common; test: Postemergence herbicidal evaluation (Example 147); settings: rating scale 0-9, two to three weeks after treatment
How it was run: as §1

[5] = test system: DIGSA, Crabgrass, (Hairy) L, Digitaria sanguinalis, (L)Scop; test: Postemergence herbicidal evaluation (Example 147); settings: rating scale 0-9, two to three weeks after treatment
How it was run: as §1

[6] = test system: ECHCG, Barnyardgrass, Echinochloa crusgalli, (L.)Beau; test: Postemergence herbicidal evaluation (Example 147); settings: rating scale 0-9, two to three weeks after treatment
How it was run: as §1

[7] = test system: GLXMA, Soybean, Glycine max, (L.) Merr.; test: Postemergence herbicidal evaluation (Example 147); settings: rating scale 0-9, two to three weeks after treatment
How it was run: as §1

[8] = test system: IPOHE, Morningglory, Ivyleaf, Ipomoea hederacea, (L)Jacq.; test: Postemergence herbicidal evaluation (Example 147); settings: rating scale 0-9, two to three weeks after treatment
How it was run: as §1

[9] = test system: SETVI, Green foxtail, Setaria viridis, (L.)Beau; test: Postemergence herbicidal evaluation (Example 147); settings: rating scale 0-9, two to three weeks after treatment
How it was run: as §1

[10] = test system: TRZAW, Winter wheat, Tritium Aestivum, L. (Winter); test: Postemergence herbicidal evaluation (Example 147); settings: rating scale 0-9, two to three weeks after treatment
How it was run: as §1

[11] = test system: ZEAMX, Field corn, Zea mays L.; test: Postemergence herbicidal evaluation (Example 147); settings: rating scale 0-9, two to three weeks after treatment
How it was run: as §1

[12] = test system: ABUTH, Velvetleaf, Abutilon theophrasti, Medic.; test: Preemergence herbicidal evaluation (Example 148); settings: rating scale 0-9, two to four weeks after treatment
How it was run: (§2)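 Visual scoring against control (stand, vigor, malformation, size, chlorosis, overall appearance) took place two to four weeks post-spray in the greenhouse. Compound in aqueous acetone was applied to freshly seeded soil cups at roughly 0.125–0.250 kg/ha. Values from multiple tests were averaged.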

[13] = test system: ALOMY, Blackgrass, Alopecurus myosuroides; test: Preemergence herbicidal evaluation (Example 148); settings: rating scale 0-9, two to four weeks after treatment
How it was run: as §2

[14] = test system: AMBEL, Ragweed, Common, Ambrosia artemiisifolia, L.; test: Preemergence herbicidal evaluation (Example 148); settings: rating scale 0-9, two to four weeks after treatment
How it was run: as §2

[15] = test system: CHEAL, Lambsquarters, Chenopodium album, L. Common; test: Preemergence herbicidal evaluation (Example 148); settings: rating scale 0-9, two to four weeks after treatment
How it was run: as §2

[16] = test system: DIGSA, Crabgrass, (Hairy) L, Digitaria sanguinalis, (L)Scop; test: Preemergence herbicidal evaluation (Example 148); settings: rating scale 0-9, two to four weeks after treatment
How it was run: as §2

[17] = test system: ECHCG, Barnyardgrass, Echinochloa crusgalli, (L.)Beau; test: Preemergence herbicidal evaluation (Example 148); settings: rating scale 0-9, two to four weeks after treatment
How it was run: as §2

[18] = test system: GLXMA, Soybean, Glycine max, (L.) Merr.; test: Preemergence herbicidal evaluation (Example 148); settings: rating scale 0-9, two to four weeks after treatment
How it was run: as §2

[19] = test system: IPOHE, Morningglory, Ivyleaf, Ipomoea hederacea, (L)Jacq.; test: Preemergence herbicidal evaluation (Example 148); settings: rating scale 0-9, two to four weeks after treatment
How it was run: as §2

[20] = test system: SETVI, Green foxtail, Setaria viridis, (L.)Beau; test: Preemergence herbicidal evaluation (Example 148); settings: rating scale 0-9, two to four weeks after treatment
How it was run: as §2

[21] = test system: TRZAW, Winter wheat, Tritium Aestivum, L. (Winter); test: Preemergence herbicidal evaluation (Example 148); settings: rating scale 0-9, two to four weeks after treatment
How it was run: as §2

[22] = test system: XANST, Cocklebur, Xanthium strumariam; test: Preemergence herbicidal evaluation (Example 148); settings: rating scale 0-9, two to four weeks after treatment
How it was run: as §2

[23] = test system: ZEAMX, Field corn, Zea mays L.; test: Preemergence herbicidal evaluation (Example 148); settings: rating scale 0-9, two to four weeks after treatment
How it was run: as §2

CN(c1ccccc1)S(=O)(=O)NC(=O)c1cc(-n2c(=O)cc(C(F)(F)F)n(C)c2=O)c(F)cc1Cl [Example 73]
5.0: Postemergence herbicidal rating SETVI ([9]; rate 0.032 kg/ha) | Preemergence herbicidal rating SETVI ([20]; rate 0.25 kg/ha)
8.5: Postemergence herbicidal rating GLXMA ([7]; rate 0.016 kg/ha) | Postemergence herbicidal rating GLXMA ([7]; rate 0.032 kg/ha)
0.0: Preemergence herbicidal rating ALMOY ([13]; rate 0.125 kg/ha) | Preemergence herbicidal rating ALMOY ([13]; rate 0.25 kg/ha) | Preemergence herbicidal rating ECHCG ([17]; rate 0.125 kg/ha) | Preemergence herbicidal rating GLXMA ([18]; rate 0.125 kg/ha) | Preemergence herbicidal rating GLXMA ([18]; rate 0.25 kg/ha) | Preemergence herbicidal rating TRZAW ([21]; rate 0.125 kg/ha) | Preemergence herbicidal rating TRZAW ([21]; rate 0.25 kg/ha) | Preemergence herbicidal rating ZEAMX ([23]; rate 0.125 kg/ha) | Preemergence herbicidal rating ZEAMX ([23]; rate 0.25 kg/ha)
2.0: Postemergence herbicidal rating ALMOY ([2]; rate 0.016 kg/ha) | Preemergence herbicidal rating SETVI ([20]; rate 0.125 kg/ha)
6.0: Postemergence herbicidal rating DIGSA ([5]; rate 0.032 kg/ha)
7.0: Postemergence herbicidal rating ECHCG ([6]; rate 0.032 kg/ha) | Postemergence herbicidal rating ZEAMX ([11]; rate 0.016 kg/ha)
4.0: Postemergence herbicidal rating DIGSA ([5]; rate 0.016 kg/ha) | Postemergence herbicidal rating ECHCG ([6]; rate 0.016 kg/ha) | Postemergence herbicidal rating SETVI ([9]; rate 0.016 kg/ha)
7.5: Postemergence herbicidal rating ZEAMX ([11]; rate 0.032 kg/ha)
6.5: Postemergence herbicidal rating TRZAW ([10]; rate 0.032 kg/ha)
5.5: Postemergence herbicidal rating TRZAW ([10]; rate 0.016 kg/ha)
3.0: Postemergence herbicidal rating ALMOY ([2]; rate 0.032 kg/ha) | Preemergence herbicidal rating DIGSA ([16]; rate 0.125 kg/ha) | Preemergence herbicidal rating DIGSA ([16]; rate 0.25 kg/ha) | Preemergence herbicidal rating ECHCG ([17]; rate 0.25 kg/ha) | Preemergence herbicidal rating XANST ([22]; rate 0.125 kg/ha)
8.0: Postemergence herbicidal rating CHEAL ([4]; rate 0.016 kg/ha)
9.0: Postemergence herbicidal rating ABUTH ([1]; rate 0.016 kg/ha) | Postemergence herbicidal rating ABUTH ([1]; rate 0.032 kg/ha) | Postemergence herbicidal rating AMBEL ([3]; rate 0.016 kg/ha) | Postemergence herbicidal rating AMBEL ([3]; rate 0.032 kg/ha) | Postemergence herbicidal rating CHEAL ([4]; rate 0.032 kg/ha) | Postemergence herbicidal rating IPOHE ([8]; rate 0.016 kg/ha) | Postemergence herbicidal rating IPOHE ([8]; rate 0.032 kg/ha) | Preemergence herbicidal rating ABUTH ([12]; rate 0.125 kg/ha) | Preemergence herbicidal rating ABUTH ([12]; rate 0.25 kg/ha) | Preemergence herbicidal rating AMBEL ([14]; rate 0.125 kg/ha) | Preemergence herbicidal rating AMBEL ([14]; rate 0.25 kg/ha) | Preemergence herbicidal rating CHEAL ([15]; rate 0.125 kg/ha) | Preemergence herbicidal rating CHEAL ([15]; rate 0.25 kg/ha) | Preemergence herbicidal rating IPOHE ([19]; rate 0.125 kg/ha) | Preemergence herbicidal rating IPOHE ([19]; rate 0.25 kg/ha) | Preemergence herbicidal rating XANST ([22]; rate 0.25 kg/ha)

COc1cccc(CN(C)S(=O)(=O)NC(=O)c2cc(-n3c(=O)cc(C(F)(F)F)n(C)c3=O)c(F)cc2Cl)c1 [Example 70]
7.0: Postemergence herbicidal rating AMBEL ([3]; rate 0.032 kg/ha) | Postemergence herbicidal rating CHEAL ([4]; rate 0.032 kg/ha) | Postemergence herbicidal rating ZEAMX ([11]; rate 0.016 kg/ha) | Postemergence herbicidal rating ZEAMX ([11]; rate 0.032 kg/ha) | Preemergence herbicidal rating ECHCG ([17]; rate 0.25 kg/ha)
4.0: Postemergence herbicidal rating ECHCG ([6]; rate 0.016 kg/ha) | Postemergence herbicidal rating SETVI ([9]; rate 0.016 kg/ha)
3.0: Postemergence herbicidal rating DIGSA ([5]; rate 0.032 kg/ha) | Preemergence herbicidal rating GLXMA ([18]; rate 0.25 kg/ha) | Preemergence herbicidal rating SETVI ([20]; rate 0.125 kg/ha)
6.5: Postemergence herbicidal rating GLXMA ([7]; rate 0.016 kg/ha)
5.0: Postemergence herbicidal rating AMBEL ([3]; rate 0.016 kg/ha) | Postemergence herbicidal rating SETVI ([9]; rate 0.032 kg/ha) | Postemergence herbicidal rating TRZAW ([10]; rate 0.032 kg/ha) | Preemergence herbicidal rating DIGSA ([16]; rate 0.25 kg/ha) | Preemergence herbicidal rating SETVI ([20]; rate 0.25 kg/ha)
8.0: Postemergence herbicidal rating ECHCG ([6]; rate 0.032 kg/ha) | Preemergence herbicidal rating CHEAL ([15]; rate 0.125 kg/ha) | Preemergence herbicidal rating XANST ([22]; rate 0.125 kg/ha)
6.0: Postemergence herbicidal rating CHEAL ([4]; rate 0.016 kg/ha)
1.0: Postemergence herbicidal rating ALMOY ([2]; rate 0.016 kg/ha) | Postemergence herbicidal rating ALMOY ([2]; rate 0.032 kg/ha) | Preemergence herbicidal rating GLXMA ([18]; rate 0.125 kg/ha) | Preemergence herbicidal rating TRZAW ([21]; rate 0.25 kg/ha)
9.0: Postemergence herbicidal rating ABUTH ([1]; rate 0.016 kg/ha) | Postemergence herbicidal rating ABUTH ([1]; rate 0.032 kg/ha) | Postemergence herbicidal rating IPOHE ([8]; rate 0.016 kg/ha) | Postemergence herbicidal rating IPOHE ([8]; rate 0.032 kg/ha) | Preemergence herbicidal rating ABUTH ([12]; rate 0.125 kg/ha) | Preemergence herbicidal rating ABUTH ([12]; rate 0.25 kg/ha) | Preemergence herbicidal rating AMBEL ([14]; rate 0.125 kg/ha) | Preemergence herbicidal rating AMBEL ([14]; rate 0.25 kg/ha) | Preemergence herbicidal rating CHEAL ([15]; rate 0.25 kg/ha) | Preemergence herbicidal rating IPOHE ([19]; rate 0.125 kg/ha) | Preemergence herbicidal rating IPOHE ([19]; rate 0.25 kg/ha) | Preemergence herbicidal rating XANST ([22]; rate 0.25 kg/ha)
4.5: Postemergence herbicidal rating TRZAW ([10]; rate 0.016 kg/ha)
0.0: Preemergence herbicidal rating ALMOY ([13]; rate 0.125 kg/ha) | Preemergence herbicidal rating ALMOY ([13]; rate 0.25 kg/ha) | Preemergence herbicidal rating TRZAW ([21]; rate 0.125 kg/ha) | Preemergence herbicidal rating ZEAMX ([23]; rate 0.125 kg/ha) | Preemergence herbicidal rating ZEAMX ([23]; rate 0.25 kg/ha)
2.0: Postemergence herbicidal rating DIGSA ([5]; rate 0.016 kg/ha) | Preemergence herbicidal rating DIGSA ([16]; rate 0.125 kg/ha) | Preemergence herbicidal rating ECHCG ([17]; rate 0.125 kg/ha)
7.5: Postemergence herbicidal rating GLXMA ([7]; rate 0.032 kg/ha)
